ChEMBL document CHEMBL4813945, “Discovery and development of novel pyrimidine and pyrazolo/thieno-fused pyrimidine derivatives as potent and orally active inducible nitric oxide synthase dimerization inhibitor with efficacy for arthritis” (Eur J Med Chem, 2021)

Experiments:
[1] = tested on: RAW264.7; assay: Antiinflammatory activity against mouse RAW264.7 cells assessed as inhibition of LPS-induced NO production at 10 uM preincubated for 1 hrs followed by LPS stimulation and measured after 24 hrs by Griess assay relative to control; type: functional; conditions: time 25 hrs
[2] = tested on: RAW264.7; assay: Cytotoxicity against mouse RAW264.7 cells at 20 uM measured after 24 hrs; type: cell-based; conditions: raw264.7, 24 h
[3] = tested on: L02; assay: Antiinflammatory activity against human L02 assessed as inhibition of LPS-induced NO production preincubated for 1 hrs followed by LPS stimulation and measured after 24 hrs by Griess assay relative to control; type: functional, cell-based

With `CCCc1nn(C)c2c(NCc3ccc(F)cc3)nc(/C=C/c3nc(C)c(C)nc3C)nc12` the inhibition at 10 µM [1] was 63.4%, the Activity [2] was “Non-Toxic” and the IC50 [3] was > 1000 µM.
For `COc1cc(/C=C/c2nc(Cl)cc(NCCc3ccc(F)cc3)n2)cc(OC)c1OC`, the inhibition at 10 µM [1] was 55.9%, the Activity [2] was “Non-Toxic” and the IC50 [3] was < 40 µM.
For `CCCc1nn(C)c2c(NC3CC3)nc(/C=C/c3nc(C)c(C)nc3C)nc12`, the inhibition at 10 µM [1] was 48.4%, the Activity [2] was “Non-Toxic” and the IC50 [3] was 706 µM.
With `COc1cc(/C=C/c2nc(O)nc(NCCc3ccccc3)n2)cc(OC)c1OC` the inhibition at 10 µM [1] was 57%, the Activity [2] was “Non-Toxic” and the IC50 [3] was < 40 µM.
With `CCCc1nn(C)c2c(NCc3ccc(F)cc3)nc(CCc3cccnc3)nc12` the inhibition at 10 µM [1] was 18.8%, the Activity [2] was “Non-Toxic” and the IC50 [3] was < 40 µM.
With `COc1cc(/C=C/c2nc(Cl)cc(NC(C)C)n2)cc(OC)c1OC` the inhibition at 10 µM [1] was 29%, the Activity [2] was “Non-Toxic” and the IC50 [3] was < 40 µM.
In the case of `CCCc1nn(C)c2c(N3CCS(=O)(=O)CC3)nc(/C=C/c3nc(C)c(C)nc3C)nc12`, the inhibition at 10 µM [1] is reported as 51.6%, the Activity [2] is reported as “Non-Toxic” and the IC50 [3] is reported as < 40 µM.
`CCN1CCN(c2nc(/C=C/c3cc(OC)c(OC)c(OC)c3)nc3ccsc23)CC1` was tested, and the inhibition at 10 µM [1] was 46.7%, the Activity [2] was “Non-Toxic” and the IC50 [3] was > 1000 µM.
For `Fc1ccc(CCNc2nc(/C=C/c3ccccc3)nc3ccsc23)cc1`, the inhibition at 10 µM [1] was 29.8%, the Activity [2] was “Non-Toxic” and the IC50 [3] was > 1000 µM.
For `CN(c1ccccc1)c1nc(/C=C/c2ccccc2)nc2ccsc12`, the inhibition at 10 µM [1] was 24.9%, the Activity [2] was “Non-Toxic” and the IC50 [3] was > 1000 µM.
In the case of `CN1CCN(c2nc(/C=C/c3ccccc3)nc3ccsc23)CC1`, the inhibition at 10 µM [1] is reported as 18.5%, the Activity [2] is reported as “Non-Toxic” and the IC50 [3] is reported as 198 µM.
`COc1cc(/C=C/c2nc(NCCc3ccc(F)cc3)c3sccc3n2)cc(OC)c1OC` was tested, and the inhibition at 10 µM [1] was 26.9%, the Activity [2] was “Non-Toxic” and the IC50 [3] was < 40 µM.
In the case of `COc1cc(/C=C/c2nc(N3CCN(C)CC3)c3sccc3n2)cc(OC)c1OC`, the inhibition at 10 µM [1] is reported as 39.3%, the Activity [2] is reported as “Non-Toxic” and the IC50 [3] is reported as > 1000 µM.
With `CN1CCN(c2nc(/C=C/c3ccco3)nc3ccsc23)CC1` the inhibition at 10 µM [1] was 43.9%, the Activity [2] was “Non-Toxic” and the IC50 [3] was > 1000 µM.
For `Fc1ccc(CNc2nc(/C=C/c3ccco3)nc3ccsc23)cc1`, the inhibition at 10 µM [1] was 59.2%, the Activity [2] was “Non-Toxic” and the IC50 [3] was > 1000 µM.
In the case of `CCCc1nn(C)c2c(N3CCS(=O)(=O)CC3)nc(/C=C/c3cccnc3)nc12`, the inhibition at 10 µM [1] is reported as 60.2%, the Activity [2] is reported as “Non-Toxic” and the IC50 [3] is reported as 472 µM.
